Reference: ChEMBL document CHEMBL3132769, “Fragment growing to retain or alter the selectivity of anchored kinase hinge-binding fragments” (Medchemcomm, 2014)

Assays:
[1] = biological target: Glycogen synthase kinase-3 beta (Homo sapiens) (UniProt P49841); experiment: Inhibition of human full length GSK-3 beta expressed in baculovirus assessed as substrate phosphorylation using fluorescence-labelled peptides as substrate at 0.06 uM after 90 mins by microfluidic peptide phosphorylation assay
[2] = biological target: Casein kinase I isoform delta (Homo sapiens) (UniProt P48730); experiment: Inhibition of human CK1D catalytic domain expressed in Escherichia coli cell assessed as substrate phosphorylation using fluorescence-labelled peptides as substrate at 70 uM after 90 mins by microfluidic peptide phosphorylation assay
[3] = biological target: Aurora kinase B (Homo sapiens) (UniProt Q96GD4); experiment: Inhibition of human full length AurB expressed in baculovirus assessed as substrate phosphorylation using fluorescence-labelled peptides as substrate at 95 uM after 90 mins by microfluidic peptide phosphorylation assay
[4] = biological target: T1, Aurora kinase A (Homo sapiens) (UniProt O14965); experiment: Inhibition of human full length AurA expressed in baculovirus assessed as substrate phosphorylation using fluorescence-labelled peptides as substrate at 2 uM after 90 mins by microfluidic peptide phosphorylation assay
T1 sequence (whole entry): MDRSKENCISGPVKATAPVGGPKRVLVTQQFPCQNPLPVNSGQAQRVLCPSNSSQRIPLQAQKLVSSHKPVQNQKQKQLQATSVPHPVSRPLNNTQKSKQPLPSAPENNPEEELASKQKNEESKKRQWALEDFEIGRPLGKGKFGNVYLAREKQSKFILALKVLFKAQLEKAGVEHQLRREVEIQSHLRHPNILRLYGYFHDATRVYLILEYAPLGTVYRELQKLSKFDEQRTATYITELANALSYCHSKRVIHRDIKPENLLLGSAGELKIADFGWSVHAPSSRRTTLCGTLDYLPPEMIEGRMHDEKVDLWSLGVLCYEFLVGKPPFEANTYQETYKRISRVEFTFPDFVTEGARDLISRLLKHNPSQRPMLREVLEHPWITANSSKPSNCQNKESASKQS

[5] = biological target: RAF proto-oncogene serine/threonine-protein kinase (Homo sapiens) (UniProt P04049); experiment: Inhibition of human truncated c-Raf expressed in baculovirus assessed as substrate phosphorylation using fluorescence-labelled peptides as substrate at 2 uM after 90 mins by microfluidic peptide phosphorylation assay
[6] = biological target: Glycogen synthase kinase-3 beta (Homo sapiens) (UniProt P49841); experiment: Inhibition of human full length GSK-3 beta expressed in baculovirus assessed as substrate phosphorylation using fluorescence-labelled peptides as substrate at […] after 90 mins by microfluidic peptide phosphorylation assay
[7] = biological target: Receptor-type tyrosine-protein kinase FLT3 (Homo sapiens) (UniProt P36888); experiment: Inhibition of human FLT3 catalytic domain expressed in baculovirus assessed as substrate phosphorylation using fluorescence-labelled peptides as substrate at 8 uM after 90 mins by microfluidic peptide phosphorylation assay
[8] = system: Tyrosine-protein kinase ABL1 (Homo sapiens), P00519 [Q252H]; experiment: Inhibition of human truncated ABL Q252H mutant expressed in baculovirus assessed as substrate phosphorylation using fluorescence-labelled peptides as substrate at 8 uM after 90 mins by microfluidic peptide phosphorylation assay
[9] = biological target: T2, Interleukin-1 receptor-associated kinase 4 (Homo sapiens) (UniProt Q9NWZ3); experiment: Inhibition of human IRAK4 catalytic domain expressed in baculovirus assessed as substrate phosphorylation using fluorescence-labelled peptides as substrate at 0.1 uM after 90 mins by microfluidic peptide phosphorylation assay
T2 sequence (whole entry): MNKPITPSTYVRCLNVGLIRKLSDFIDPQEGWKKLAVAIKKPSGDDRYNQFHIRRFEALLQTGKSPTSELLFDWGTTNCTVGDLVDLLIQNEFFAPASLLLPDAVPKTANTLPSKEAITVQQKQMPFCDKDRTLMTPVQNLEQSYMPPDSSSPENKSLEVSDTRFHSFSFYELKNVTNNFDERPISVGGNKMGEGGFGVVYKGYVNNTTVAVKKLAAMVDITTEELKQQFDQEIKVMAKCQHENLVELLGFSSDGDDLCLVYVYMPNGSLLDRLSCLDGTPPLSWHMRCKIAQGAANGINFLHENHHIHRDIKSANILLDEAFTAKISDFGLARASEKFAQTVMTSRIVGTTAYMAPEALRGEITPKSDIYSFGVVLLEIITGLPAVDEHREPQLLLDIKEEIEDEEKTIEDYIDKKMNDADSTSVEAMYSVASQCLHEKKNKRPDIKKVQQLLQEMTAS

[10] = biological target: T3, Serine/threonine-protein kinase D2 (Homo sapiens) (UniProt Q9BZL6); conditions: 0.1 uM
T3 sequence (whole entry): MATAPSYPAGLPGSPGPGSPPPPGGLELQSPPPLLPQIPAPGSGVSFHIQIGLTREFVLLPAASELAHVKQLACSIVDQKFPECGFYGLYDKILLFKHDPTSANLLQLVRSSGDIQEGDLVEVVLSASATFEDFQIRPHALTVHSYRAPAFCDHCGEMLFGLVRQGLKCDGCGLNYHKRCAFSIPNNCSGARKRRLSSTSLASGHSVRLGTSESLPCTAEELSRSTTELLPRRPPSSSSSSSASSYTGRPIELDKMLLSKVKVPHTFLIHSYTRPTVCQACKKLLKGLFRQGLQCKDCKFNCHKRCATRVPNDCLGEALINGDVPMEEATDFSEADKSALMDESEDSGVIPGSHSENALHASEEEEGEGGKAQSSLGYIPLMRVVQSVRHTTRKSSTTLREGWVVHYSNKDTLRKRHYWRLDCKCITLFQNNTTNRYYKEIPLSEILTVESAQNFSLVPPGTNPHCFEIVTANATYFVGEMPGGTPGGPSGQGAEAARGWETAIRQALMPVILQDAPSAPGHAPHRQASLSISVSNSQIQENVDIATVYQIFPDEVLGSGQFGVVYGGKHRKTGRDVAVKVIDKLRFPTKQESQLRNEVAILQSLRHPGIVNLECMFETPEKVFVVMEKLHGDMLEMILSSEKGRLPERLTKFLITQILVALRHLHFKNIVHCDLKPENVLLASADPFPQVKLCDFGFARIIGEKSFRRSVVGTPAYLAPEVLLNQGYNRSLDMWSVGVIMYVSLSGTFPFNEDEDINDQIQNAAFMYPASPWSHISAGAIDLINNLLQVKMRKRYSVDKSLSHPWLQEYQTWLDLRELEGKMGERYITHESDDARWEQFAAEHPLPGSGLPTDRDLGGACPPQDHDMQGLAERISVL
Description: Inhibition of human full length PKD2 expressed in baculovirus assessed as substrate phosphorylation using fluorescence-labelled peptides as substrate at 0.1 uM after 90 mins by microfluidic peptide phosphorylation assay

Glycogen synthase kinase-3 beta (Homo sapiens), sequence (P49841 whole entry, looked up, the tested form may be a part, canonical isoform): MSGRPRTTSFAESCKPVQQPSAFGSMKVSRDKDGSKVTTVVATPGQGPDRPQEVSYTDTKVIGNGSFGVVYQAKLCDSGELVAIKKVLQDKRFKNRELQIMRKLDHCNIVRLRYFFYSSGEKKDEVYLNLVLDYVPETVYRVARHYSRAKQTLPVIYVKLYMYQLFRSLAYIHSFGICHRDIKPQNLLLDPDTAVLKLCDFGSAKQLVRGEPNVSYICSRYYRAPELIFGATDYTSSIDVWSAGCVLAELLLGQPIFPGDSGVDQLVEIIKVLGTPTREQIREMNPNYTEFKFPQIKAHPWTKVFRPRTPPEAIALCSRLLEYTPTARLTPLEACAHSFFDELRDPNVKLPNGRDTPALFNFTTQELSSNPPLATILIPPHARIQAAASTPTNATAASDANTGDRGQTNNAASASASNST
Receptor-type tyrosine-protein kinase FLT3 (Homo sapiens), sequence (P36888 whole entry, the tested form may be a part): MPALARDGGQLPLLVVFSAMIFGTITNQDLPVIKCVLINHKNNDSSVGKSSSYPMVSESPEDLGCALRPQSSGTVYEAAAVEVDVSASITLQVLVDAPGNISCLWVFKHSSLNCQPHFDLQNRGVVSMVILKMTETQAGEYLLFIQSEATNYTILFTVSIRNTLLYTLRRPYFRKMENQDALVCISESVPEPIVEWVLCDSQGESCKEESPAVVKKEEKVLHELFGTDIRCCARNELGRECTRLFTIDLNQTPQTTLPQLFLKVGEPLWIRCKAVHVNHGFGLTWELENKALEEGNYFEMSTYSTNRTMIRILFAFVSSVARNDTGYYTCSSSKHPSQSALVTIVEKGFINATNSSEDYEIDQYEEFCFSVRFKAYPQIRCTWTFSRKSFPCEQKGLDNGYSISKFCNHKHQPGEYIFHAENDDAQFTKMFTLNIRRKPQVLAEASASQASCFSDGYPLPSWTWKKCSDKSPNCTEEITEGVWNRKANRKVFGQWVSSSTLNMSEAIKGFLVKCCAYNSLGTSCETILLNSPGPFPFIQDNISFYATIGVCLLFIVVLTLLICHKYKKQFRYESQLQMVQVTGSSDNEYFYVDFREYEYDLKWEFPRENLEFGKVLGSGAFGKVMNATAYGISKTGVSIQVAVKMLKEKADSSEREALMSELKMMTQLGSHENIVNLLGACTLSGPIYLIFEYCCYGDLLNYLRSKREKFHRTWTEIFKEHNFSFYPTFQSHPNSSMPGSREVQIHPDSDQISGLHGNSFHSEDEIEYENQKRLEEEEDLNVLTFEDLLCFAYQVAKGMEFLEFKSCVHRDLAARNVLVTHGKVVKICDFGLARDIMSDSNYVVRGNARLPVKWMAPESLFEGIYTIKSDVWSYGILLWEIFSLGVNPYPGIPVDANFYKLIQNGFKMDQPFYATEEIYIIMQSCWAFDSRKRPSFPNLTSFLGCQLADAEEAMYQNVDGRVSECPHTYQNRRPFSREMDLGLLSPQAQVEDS
Aurora kinase B (Homo sapiens), sequence (Q96GD4 whole entry): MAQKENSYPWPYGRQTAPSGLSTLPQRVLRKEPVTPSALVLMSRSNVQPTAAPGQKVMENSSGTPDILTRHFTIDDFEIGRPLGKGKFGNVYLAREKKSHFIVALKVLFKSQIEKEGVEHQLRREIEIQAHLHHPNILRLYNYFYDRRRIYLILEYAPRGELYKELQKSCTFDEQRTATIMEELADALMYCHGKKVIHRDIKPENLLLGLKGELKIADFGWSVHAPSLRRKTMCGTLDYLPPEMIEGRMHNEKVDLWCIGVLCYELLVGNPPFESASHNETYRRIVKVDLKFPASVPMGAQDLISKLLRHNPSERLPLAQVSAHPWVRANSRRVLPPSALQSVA
Casein kinase I isoform delta (Homo sapiens), sequence (P48730 whole entry, looked up, the tested form may be a part, canonical isoform): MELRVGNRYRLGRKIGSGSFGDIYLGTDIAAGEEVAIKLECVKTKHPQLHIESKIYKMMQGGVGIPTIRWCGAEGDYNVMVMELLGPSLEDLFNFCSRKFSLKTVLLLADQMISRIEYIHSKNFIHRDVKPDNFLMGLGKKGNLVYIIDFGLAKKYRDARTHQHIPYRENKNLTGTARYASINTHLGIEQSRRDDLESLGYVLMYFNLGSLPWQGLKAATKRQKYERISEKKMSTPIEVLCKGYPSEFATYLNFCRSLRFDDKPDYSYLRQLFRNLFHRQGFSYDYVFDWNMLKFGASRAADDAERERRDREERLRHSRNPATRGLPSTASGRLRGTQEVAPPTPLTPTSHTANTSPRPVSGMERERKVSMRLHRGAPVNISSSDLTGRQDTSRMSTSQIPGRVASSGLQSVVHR
RAF proto-oncogene serine/threonine-protein kinase (Homo sapiens), sequence (P04049 whole entry, the tested form may be a part): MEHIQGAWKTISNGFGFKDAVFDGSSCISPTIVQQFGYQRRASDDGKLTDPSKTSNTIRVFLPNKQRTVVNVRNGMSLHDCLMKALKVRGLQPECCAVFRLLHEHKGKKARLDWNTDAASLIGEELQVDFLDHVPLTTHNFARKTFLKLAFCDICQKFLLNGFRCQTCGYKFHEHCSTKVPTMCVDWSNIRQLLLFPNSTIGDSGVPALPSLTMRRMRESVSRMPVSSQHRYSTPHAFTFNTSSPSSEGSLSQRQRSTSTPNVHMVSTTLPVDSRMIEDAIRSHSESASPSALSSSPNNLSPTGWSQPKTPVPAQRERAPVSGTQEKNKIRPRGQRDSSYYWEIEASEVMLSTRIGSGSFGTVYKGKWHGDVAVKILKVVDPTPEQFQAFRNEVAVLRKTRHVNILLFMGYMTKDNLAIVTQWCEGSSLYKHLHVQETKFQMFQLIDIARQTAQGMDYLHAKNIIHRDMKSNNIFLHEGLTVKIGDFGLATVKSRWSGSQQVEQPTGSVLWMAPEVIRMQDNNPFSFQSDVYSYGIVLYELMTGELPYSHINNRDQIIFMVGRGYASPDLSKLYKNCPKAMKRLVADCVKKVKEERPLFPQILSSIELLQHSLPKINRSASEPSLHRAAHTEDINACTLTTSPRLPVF

Compound: NC1(Cc2ccc(Cl)cc2)CCN(c2ncnc3[nH]ccc23)CC1
- inhibition [1]: 0%

Compound: CNCc1ccc(-c2ncnc3[nH]cnc23)cc1
- inhibition [2]: 46%

Compound: NCCc1ccc(-c2ncnc3[nH]cnc23)cc1
- inhibition [3]: 97%

Compound: NC1CCN(c2ncnc3[nH]ccc23)CC1
- inhibition [4]: 64.5%
- inhibition [5]: 7%

Compound: COC(=O)c1cnc(Nc2cnc(C#N)cn2)cc1NCC1CCNCC1
- inhibition [6]: 3.5%

Compound: NCC1CCN(c2ncnc3[nH]ccc23)CC1
- inhibition [7]: 0%
- inhibition [8]: 87.5%

Compound: C[C@H](CN(C)C)Oc1nc(Nc2cc3cccc(Cl)c3cn2)cnc1C#N
- inhibition [9]: 11.5%
- inhibition [10]: 0%
